Test results as given in PMC6149898, “GPCR Modulation of Thieno[2,3-b]pyridine Anti-Proliferative Agents” (Molecules : A Journal of Synthetic Chemistry and Natural …, 2017).

How the values were obtained:
PR:DU-145 = test system: PR:DU-145; design: method as in earlier work; details: NCI-60 panel; ref [4],[5],[6],[7]; cited from earlier work
PTGER3 = PTGER3 (Homo sapiens, UniProt P43115); assay: gpcrMAX PathHunter beta-arrestin
PTHR1 = PTHR1 (Homo sapiens, UniProt Q03431); assay: gpcrMAX PathHunter beta-arrestin
VIPR2 = VIPR2 (Homo sapiens, UniProt P41587); assay: gpcrMAX PathHunter beta-arrestin
DRD1 = DRD1 (Homo sapiens, UniProt P21728); assay: gpcrMAX PathHunter beta-arrestin
GPR119 = GPR119 (Homo sapiens, UniProt Q8TDV5); assay: gpcrMAX PathHunter beta-arrestin
PR:PC-3 = test system: PR:PC-3; design: method as in earlier work; details: NCI-60 panel; ref [4],[5],[6],[7]; cited from earlier work
EBI2 = EBI2 (Homo sapiens, UniProt P32249); assay: gpcrMAX PathHunter beta-arrestin
GCGR = GCGR (Homo sapiens, UniProt P47871); assay: gpcrMAX PathHunter beta-arrestin
MC3R = MC3R (Homo sapiens, UniProt P41968); assay: gpcrMAX PathHunter beta-arrestin
CO:HT29 = test system: CO:HT29; design: method as in earlier work; details: NCI-60 panel; ref [4],[5],[6],[7]; cited from earlier work
PTGFR = PTGFR (Homo sapiens, UniProt P43088); assay: gpcrMAX PathHunter beta-arrestin
MC4R = MC4R (Homo sapiens, UniProt P32245); assay: gpcrMAX PathHunter beta-arrestin
P2RY1 = P2RY1 (Homo sapiens, UniProt P47900); assay: gpcrMAX PathHunter beta-arrestin
ME:SK-MEL-28 = test system: ME:SK-MEL-28; design: method as in earlier work; details: NCI-60 panel; ref [4],[5],[6],[7]; cited from earlier work
P2RY4 = P2RY4 (Homo sapiens, UniProt P51582); assay: gpcrMAX PathHunter beta-arrestin
GPR109A = GPR109A (Homo sapiens, UniProt Q8TDS4); assay: gpcrMAX PathHunter beta-arrestin
FPR1 = FPR1 (Homo sapiens, UniProt P21462); assay: gpcrMAX PathHunter beta-arrestin
OV:IGROV1 = test system: OV:IGROV1; design: method as in earlier work; details: NCI-60 panel; ref [4],[5],[6],[7]; cited from earlier work
MCHR2 = MCHR2 (Homo sapiens, UniProt Q969V1); assay: gpcrMAX PathHunter beta-arrestin
CALCRL-RAMP2 = CALCRL-RAMP2 (Homo sapiens, UniProt O60895+Q16602); assay: gpcrMAX PathHunter beta-arrestin
TSHR(L) = TSHR(L) (Homo sapiens, UniProt P16473); assay: gpcrMAX PathHunter beta-arrestin
HTR2C = HTR2C (Homo sapiens, UniProt P28335); assay: gpcrMAX PathHunter beta-arrestin
CRTH2 = CRTH2 (Homo sapiens, UniProt Q9Y5Y4); assay: gpcrMAX PathHunter beta-arrestin
CXCR7 = CXCR7 (Homo sapiens, UniProt P25106); assay: gpcrMAX PathHunter beta-arrestin
VIPR1 = VIPR1 (Homo sapiens, UniProt P32241); assay: gpcrMAX PathHunter beta-arrestin
DRD2L = DRD2L (Homo sapiens, UniProt P14416); assay: gpcrMAX PathHunter beta-arrestin
LC:NCI-H226 = test system: LC:NCI-H226; design: method as in earlier work; details: NCI-60 panel; ref [4],[5],[6],[7]; cited from earlier work
LE:RPMI-8226 = test system: LE:RPMI-8226; design: method as in earlier work; details: NCI-60 panel; ref [4],[5],[6],[7]; cited from earlier work
CCR10 = CCR10 (Homo sapiens, UniProt P46092); assay: gpcrMAX PathHunter beta-arrestin
CNS:SNB-75 = test system: CNS:SNB-75; design: method as in earlier work; details: NCI-60 panel; ref [4],[5],[6],[7]; cited from earlier work
BR:T-47D = test system: BR:T-47D; design: method as in earlier work; details: NCI-60 panel; ref [4],[5],[6],[7]; cited from earlier work
NPY1R = NPY1R (Homo sapiens, UniProt P25929); assay: gpcrMAX PathHunter beta-arrestin
LE:CCRF-CEM = test system: LE:CCRF-CEM; design: method as in earlier work; details: NCI-60 panel; ref [4],[5],[6],[7]; cited from earlier work
ADORA3 = ADORA3 (Homo sapiens, UniProt P0DMS8); assay: gpcrMAX PathHunter beta-arrestin
FSHR = FSHR (Homo sapiens, UniProt P23945); assay: gpcrMAX PathHunter beta-arrestin
CCR7 = CCR7 (Homo sapiens, UniProt P32248); assay: gpcrMAX PathHunter beta-arrestin
CHRM2 = CHRM2 (Homo sapiens, UniProt P08172); assay: gpcrMAX PathHunter beta-arrestin
PPYR1 = PPYR1 (Homo sapiens, UniProt P50391); assay: gpcrMAX PathHunter beta-arrestin
RE:786-0 = test system: RE:786-0; design: method as in earlier work; details: NCI-60 panel; ref [4],[5],[6],[7]; cited from earlier work
CCR4 = CCR4 (Homo sapiens, UniProt P51679); assay: gpcrMAX PathHunter beta-arrestin
Chain of CCR4 (P51679 whole entry): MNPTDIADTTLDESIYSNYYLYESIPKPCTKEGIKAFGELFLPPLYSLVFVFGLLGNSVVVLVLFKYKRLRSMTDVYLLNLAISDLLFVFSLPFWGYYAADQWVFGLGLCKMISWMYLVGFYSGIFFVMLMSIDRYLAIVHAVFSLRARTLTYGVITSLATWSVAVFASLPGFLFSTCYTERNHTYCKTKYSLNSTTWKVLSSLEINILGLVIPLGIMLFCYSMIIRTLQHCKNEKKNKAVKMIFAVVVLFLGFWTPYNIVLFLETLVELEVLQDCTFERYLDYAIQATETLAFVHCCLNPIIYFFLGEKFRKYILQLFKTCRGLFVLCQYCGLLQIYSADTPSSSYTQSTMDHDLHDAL

Chain of VIPR2 (P41587 24-438): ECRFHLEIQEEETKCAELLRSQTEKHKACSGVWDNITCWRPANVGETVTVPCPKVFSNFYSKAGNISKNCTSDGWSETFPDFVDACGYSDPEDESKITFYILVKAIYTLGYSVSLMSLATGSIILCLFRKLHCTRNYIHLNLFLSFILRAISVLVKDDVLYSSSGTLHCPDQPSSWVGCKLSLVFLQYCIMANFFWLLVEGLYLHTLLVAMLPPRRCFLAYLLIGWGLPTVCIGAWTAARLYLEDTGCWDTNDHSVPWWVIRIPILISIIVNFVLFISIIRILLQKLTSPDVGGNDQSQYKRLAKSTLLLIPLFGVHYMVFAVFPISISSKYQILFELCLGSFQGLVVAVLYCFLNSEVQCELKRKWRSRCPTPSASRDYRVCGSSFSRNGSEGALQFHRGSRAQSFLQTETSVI
Chain of CCR10 (P46092 whole entry): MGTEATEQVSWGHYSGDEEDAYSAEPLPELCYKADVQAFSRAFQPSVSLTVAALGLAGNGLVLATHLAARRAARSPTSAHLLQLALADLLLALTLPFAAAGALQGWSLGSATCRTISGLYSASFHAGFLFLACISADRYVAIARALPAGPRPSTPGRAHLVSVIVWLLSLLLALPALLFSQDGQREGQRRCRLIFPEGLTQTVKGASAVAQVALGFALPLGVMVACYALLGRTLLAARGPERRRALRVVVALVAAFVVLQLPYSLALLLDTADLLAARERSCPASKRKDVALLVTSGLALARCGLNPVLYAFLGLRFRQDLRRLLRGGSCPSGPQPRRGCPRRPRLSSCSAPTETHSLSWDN
Chain of MC3R (P41968 whole entry): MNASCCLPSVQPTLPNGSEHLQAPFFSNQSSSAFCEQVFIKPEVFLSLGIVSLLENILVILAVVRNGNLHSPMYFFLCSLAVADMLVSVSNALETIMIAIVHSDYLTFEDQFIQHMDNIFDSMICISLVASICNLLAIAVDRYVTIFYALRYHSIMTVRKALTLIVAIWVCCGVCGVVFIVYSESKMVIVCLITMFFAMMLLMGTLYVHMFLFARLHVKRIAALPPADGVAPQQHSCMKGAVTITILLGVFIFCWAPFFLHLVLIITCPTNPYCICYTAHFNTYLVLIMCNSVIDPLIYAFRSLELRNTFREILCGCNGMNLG
Chain of P2RY1 (P47900 whole entry): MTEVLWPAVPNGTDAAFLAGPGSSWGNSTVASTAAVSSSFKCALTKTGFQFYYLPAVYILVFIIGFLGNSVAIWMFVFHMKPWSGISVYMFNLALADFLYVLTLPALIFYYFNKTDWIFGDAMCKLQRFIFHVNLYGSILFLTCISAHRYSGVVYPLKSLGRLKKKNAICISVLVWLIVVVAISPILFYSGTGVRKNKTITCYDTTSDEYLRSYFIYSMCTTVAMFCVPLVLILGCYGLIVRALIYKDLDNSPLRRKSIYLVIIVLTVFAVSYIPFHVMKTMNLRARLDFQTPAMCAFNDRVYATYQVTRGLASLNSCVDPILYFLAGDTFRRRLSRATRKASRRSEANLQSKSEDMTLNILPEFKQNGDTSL
Chain of TSHR(L) (P16473 21-764): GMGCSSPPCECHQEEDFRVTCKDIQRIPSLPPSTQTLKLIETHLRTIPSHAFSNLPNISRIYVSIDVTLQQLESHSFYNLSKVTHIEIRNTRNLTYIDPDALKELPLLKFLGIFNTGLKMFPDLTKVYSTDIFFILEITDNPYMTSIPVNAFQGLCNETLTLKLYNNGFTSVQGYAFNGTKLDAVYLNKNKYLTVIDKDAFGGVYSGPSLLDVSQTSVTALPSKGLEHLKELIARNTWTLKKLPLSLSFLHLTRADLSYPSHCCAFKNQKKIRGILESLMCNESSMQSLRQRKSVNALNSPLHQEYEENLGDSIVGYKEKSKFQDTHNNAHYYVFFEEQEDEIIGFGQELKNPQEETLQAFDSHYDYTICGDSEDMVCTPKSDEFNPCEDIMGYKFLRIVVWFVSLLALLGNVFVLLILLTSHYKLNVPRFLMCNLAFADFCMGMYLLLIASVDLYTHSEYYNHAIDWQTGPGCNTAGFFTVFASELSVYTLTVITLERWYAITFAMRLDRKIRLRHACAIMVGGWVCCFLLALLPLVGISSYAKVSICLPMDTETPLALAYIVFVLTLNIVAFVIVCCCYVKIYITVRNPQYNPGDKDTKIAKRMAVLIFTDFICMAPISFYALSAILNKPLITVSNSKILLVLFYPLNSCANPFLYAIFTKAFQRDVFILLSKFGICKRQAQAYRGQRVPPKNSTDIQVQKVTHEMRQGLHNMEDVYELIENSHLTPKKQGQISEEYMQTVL
Chain of DRD2L (P14416 whole entry): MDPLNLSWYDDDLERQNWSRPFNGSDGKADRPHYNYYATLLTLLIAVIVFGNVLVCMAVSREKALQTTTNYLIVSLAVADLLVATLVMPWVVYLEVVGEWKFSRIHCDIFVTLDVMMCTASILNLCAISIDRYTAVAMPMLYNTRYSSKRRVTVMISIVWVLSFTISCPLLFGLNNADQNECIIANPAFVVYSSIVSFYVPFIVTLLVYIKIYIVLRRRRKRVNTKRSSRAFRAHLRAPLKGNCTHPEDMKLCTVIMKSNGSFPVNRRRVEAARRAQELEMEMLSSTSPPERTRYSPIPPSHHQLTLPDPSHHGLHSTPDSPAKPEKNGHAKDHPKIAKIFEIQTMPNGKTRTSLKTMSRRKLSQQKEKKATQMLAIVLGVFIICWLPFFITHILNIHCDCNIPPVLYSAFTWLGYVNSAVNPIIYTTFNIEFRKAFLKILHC
Chain of ADORA3 (P0DMS8 whole entry): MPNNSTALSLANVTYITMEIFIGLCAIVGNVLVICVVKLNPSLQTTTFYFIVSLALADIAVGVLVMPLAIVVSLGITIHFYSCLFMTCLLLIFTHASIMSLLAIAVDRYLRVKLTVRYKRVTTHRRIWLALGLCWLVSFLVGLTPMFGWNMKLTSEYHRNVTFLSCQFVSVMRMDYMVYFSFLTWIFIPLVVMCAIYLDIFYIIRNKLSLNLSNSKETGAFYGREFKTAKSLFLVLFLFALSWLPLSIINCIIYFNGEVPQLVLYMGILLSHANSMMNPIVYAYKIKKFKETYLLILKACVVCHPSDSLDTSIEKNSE
Chain of CXCR7 (P25106 whole entry): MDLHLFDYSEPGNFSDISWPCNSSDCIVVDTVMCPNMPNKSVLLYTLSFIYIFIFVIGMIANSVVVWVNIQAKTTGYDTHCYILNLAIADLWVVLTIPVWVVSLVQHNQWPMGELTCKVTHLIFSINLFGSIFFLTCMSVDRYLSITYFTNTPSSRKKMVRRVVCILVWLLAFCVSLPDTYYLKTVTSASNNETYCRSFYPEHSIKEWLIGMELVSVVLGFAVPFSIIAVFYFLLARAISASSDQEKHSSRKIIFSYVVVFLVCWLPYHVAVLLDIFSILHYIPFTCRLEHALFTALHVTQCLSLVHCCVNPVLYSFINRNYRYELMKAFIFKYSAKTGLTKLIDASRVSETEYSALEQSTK
Chain of DRD1 (P21728 whole entry): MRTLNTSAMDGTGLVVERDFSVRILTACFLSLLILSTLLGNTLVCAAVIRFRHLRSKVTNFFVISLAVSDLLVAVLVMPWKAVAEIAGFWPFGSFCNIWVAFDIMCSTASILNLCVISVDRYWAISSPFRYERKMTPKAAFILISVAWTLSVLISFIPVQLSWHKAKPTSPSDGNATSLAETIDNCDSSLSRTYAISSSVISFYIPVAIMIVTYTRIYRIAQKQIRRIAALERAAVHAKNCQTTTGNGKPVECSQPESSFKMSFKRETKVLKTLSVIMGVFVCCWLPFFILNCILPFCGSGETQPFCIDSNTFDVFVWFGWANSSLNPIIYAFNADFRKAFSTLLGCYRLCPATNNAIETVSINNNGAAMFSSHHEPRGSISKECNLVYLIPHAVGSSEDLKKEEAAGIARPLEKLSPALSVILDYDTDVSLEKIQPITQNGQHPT
Chain of EBI2 (P32249 whole entry): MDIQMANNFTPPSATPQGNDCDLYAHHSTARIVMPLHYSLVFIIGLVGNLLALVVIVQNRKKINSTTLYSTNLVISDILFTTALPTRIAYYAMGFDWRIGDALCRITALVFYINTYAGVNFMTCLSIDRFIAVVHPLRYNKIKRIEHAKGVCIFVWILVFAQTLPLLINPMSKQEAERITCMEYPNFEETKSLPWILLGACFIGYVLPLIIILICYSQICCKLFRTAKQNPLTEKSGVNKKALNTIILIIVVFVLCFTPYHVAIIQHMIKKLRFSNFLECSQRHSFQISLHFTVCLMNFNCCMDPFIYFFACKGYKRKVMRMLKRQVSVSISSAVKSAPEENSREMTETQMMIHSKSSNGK
Chain of PPYR1 (P50391 whole entry): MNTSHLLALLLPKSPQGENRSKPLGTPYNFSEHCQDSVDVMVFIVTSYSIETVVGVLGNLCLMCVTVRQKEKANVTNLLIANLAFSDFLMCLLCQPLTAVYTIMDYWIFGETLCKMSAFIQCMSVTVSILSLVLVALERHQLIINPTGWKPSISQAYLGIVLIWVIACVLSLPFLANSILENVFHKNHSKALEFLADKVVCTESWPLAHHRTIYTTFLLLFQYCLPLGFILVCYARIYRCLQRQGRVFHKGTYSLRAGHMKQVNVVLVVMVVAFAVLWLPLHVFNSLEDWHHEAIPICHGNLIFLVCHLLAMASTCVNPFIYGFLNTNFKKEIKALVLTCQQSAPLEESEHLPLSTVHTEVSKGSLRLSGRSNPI

## Cc1c(Cl)cccc1NC(=O)c1sc2nc3c(cc2c1N)C(=O)CCC3 [Compound 1]
PR:DU-145
  GI50: 152 nM
PTGER3
  inhibition at 10 µM: 11%
PTHR1
  inhibition at 10 µM: 12%
VIPR2
  inhibition at 10 µM: 12%
DRD1
  inhibition at 10 µM: 12%
GPR119
  inhibition at 10 µM: 23%
PR:PC-3
  GI50: 53.5 nM
EBI2
  inhibition at 10 µM: 4%
GCGR
  inhibition at 10 µM: 12%
MC3R
  inhibition at 10 µM: 2%
CO:HT29
  GI50: 49 nM
PTGFR
  inhibition at 10 µM: -13%
MC4R
  inhibition at 10 µM: -42%
P2RY1
  inhibition at 10 µM: 24%
ME:SK-MEL-28
  GI50: 224 nM
P2RY4
  inhibition at 10 µM: -16%
GPR109A
  inhibition at 10 µM: -13%
FPR1
  inhibition at 10 µM: 16%
OV:IGROV1
  GI50: 196 nM
MCHR2
  inhibition at 10 µM: -7%
CALCRL-RAMP2
  inhibition at 10 µM: -23%
TSHR(L)
  inhibition at 10 µM: -24%
HTR2C
  inhibition at 10 µM: -4%
CRTH2
  inhibition at 10 µM: 13%
CXCR7
  inhibition at 10 µM: -15%
VIPR1
  inhibition at 10 µM: 7%
DRD2L
  inhibition at 10 µM: -1%
LC:NCI-H226
  GI50: 102 nM
LE:RPMI-8226
  GI50: 256 nM
CCR10
  inhibition at 10 µM: -49%
CNS:SNB-75
  GI50: 40.3 nM
BR:T-47D
  GI50: 55 nM
NPY1R
  inhibition at 10 µM: 11%
LE:CCRF-CEM
  GI50: 141 nM
ADORA3
  inhibition at 10 µM: 25%
FSHR
  inhibition at 10 µM: 30%
CCR7
  inhibition at 10 µM: 34%
CHRM2
  inhibition at 10 µM: -14%
PPYR1
  inhibition at 10 µM: -18%
RE:786-0
  GI50: 103 nM
CCR4
  inhibition at 10 µM: 26%
